Holding throughout (assay): growth of human tumour cells (NCI), 48 h
Experiment [1] deals with SN12C renal.
The subject of experiment [2] is IGROV1 ovarian.
The subject of experiment [3] is OVCAR-8 ovarian.
In experiment [4] the test system is HOP-62 NSCLC.
The subject of experiment [5] is HCT-15 colon.
In experiment [6] the test system is UACC-257 melanoma.
The test system of experiment [7] is CAKI-1 renal.
Experiment [8] has as its system HT29 colon.
Experiment [9] concerns SF-539 CNS.

SMILES strings stand for the structures.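 Exposure lasted 48 hours, with cells grown in 96-well plates and compounds tested at five concentrations. GI50 is the concentration that inhibits growth by half. TGI: total growth inhibition.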 Some results are limits rather than exact numbers.

As for `CC(=O)[O-].CC(=O)[O-].CC(=O)[O-].CC(=O)[O-].[Mo+2].[Mo+2]`, the GI50 in experiment [1], in experiment [2], in experiment [3], in experiment [4], in experiment [5] and in experiment [6] was more than 100 µM each time. Further, the GI50 in [7], in experiment [8] and in [9] was more than 100 µM throughout. The TGI in experiment [1], in experiment [2], in [3], in experiment [4], in experiment [5] and in experiment [6] was more than 100 µM throughout. Further, the TGI in experiment [7], in experiment [8] and in experiment [9] was more than 100 µM each time.

Turning to `OC(CN1CC1)C(O)CN1CC1` (centres undefined), the GI50 in experiment [1], in experiment [2], in experiment [3], in [4], in experiment [5] and in experiment [6] was more than 50 µg/mL in each case. For the same compound, the GI50 in experiment [7] and in [8] was more than 50 µg/mL each time. Besides, the TGI in experiment [1], in experiment [2], in experiment [3], in experiment [4], in [5] and in [6] was more than 50 µg/mL throughout. For the same compound, the TGI in experiment [7] and in experiment [8] was more than 50 µg/mL in each case.

Regarding `C#CCC(N)(CO)C(=O)O` (centres undefined), the TGI in experiment [2], in experiment [3], in experiment [4], in experiment [5], in experiment [6] and in experiment [7] was more than 100 µM each time. Moreover, the TGI in experiment [8] and in experiment [9] was more than 100 µM each time.

For `CC(=O)[CH-]C(C)=O.[CH2-]C.[CH2-]C.[Tl+3]`, the GI50 in experiment [1], in experiment [2], in [3], in [4], in experiment [5] and in [6] was more than 100 µM throughout. Also, the GI50 in [7], in experiment [8] and in experiment [9] was more than 100 µM throughout. Moreover, the TGI in experiment [1], in [2], in experiment [3], in [4], in [5] and in experiment [6] was more than 100 µM throughout. The TGI in experiment [7], in experiment [8] and in [9] was more than 100 µM in each case.

Turning to `Cc1ccc(S(=O)(=O)N/N=C(\c2nc3ccc([N+](=O)[O-])cc3[nH]c2=O)C(O)c2ccccc2Cl)cc1` (centres undefined), the TGI in experiment [1], in [2], in experiment [3], in experiment [4], in [5] and in experiment [6] was more than 100 µM throughout. In addition, the TGI in experiment [7], in [8] and in [9] was more than 100 µM throughout.

On to `C=CCC1[C@@H](C(C)(C)C(C(C)=O)C(=O)C(=O)OC)OC(C(C)(C)C)N1C(=O)OC` (some centres undefined), for which the TGI in experiment [1], in [3], in [4], in experiment [5], in [6] and in [8] was more than 100 µM throughout. This compound yielded a TGI in [9] of more than 100 µM.

Consider `CCOC(=O)C(=O)Nc1ccccc1C(F)(F)F`, for which the TGI in experiment [1], in [2], in experiment [3], in experiment [4], in experiment [5] and in [6] was more than 100 µM throughout. Further, the TGI in [7], in experiment [8] and in [9] was more than 100 µM in each case.

In the case of `NC(=O)/C=C/C(=O)O`, the TGI in experiment [1], in experiment [2], in experiment [3], in experiment [4], in experiment [5] and in experiment [6] was more than 5000 µM throughout. Further, the TGI in [8] and in experiment [9] was more than 5000 µM throughout.

On to `COc1cc2cnc3c4ccccc4ccc3c2cc1OC`, for which the TGI in [1], in experiment [2], in [3], in [4], in experiment [6] and in experiment [7] was more than 100 µM each time. The compound also had a TGI in [8] of more than 100 µM.

On to `COc1cccc(/C=C2\CCC(C)(CN(C)C)C2=O)c1` (centres undefined), for which the TGI in experiment [1], in [2], in [3], in experiment [4], in experiment [5] and in [6] was more than 100 µM in each case. Also, the TGI in [7], in experiment [8] and in [9] was more than 100 µM throughout.

With `CNC(SC)=C1C(=O)OC(C)(C)OC1=O`, the TGI is more than 100 µM in experiment [1]; more than 100 µM in experiment [2]; more than 100 µM in [3]; more than 100 µM in experiment [4]; 40.9 µM in experiment [5]; more than 100 µM in experiment [6]. Further, the TGI in [7] and in experiment [8] was more than 100 µM throughout.

As to `O=C/C(=C(/Cl)c1ccc(O)cc1)c1ccccc1`, the TGI in experiment [1] is more than 61.3 µM; in experiment [2], 66.6 µM; in experiment [3], more than 92.4 µM; in experiment [5] it was 46 µM; in experiment [6], more than 56.6 µM; in [7], more than 56.8 µM. Moreover, the TGI in [8] is more than 62.7 µM; in experiment [9], more than 57.1 µM.

Take `O=c1ncccn1C1C=C(CO)C(O)C1O` (centres undefined): the TGI in [4], in [5], in [6], in experiment [7], in experiment [8] and in [9] was more than 50 µM in each case.

For the compound `COC(=O)/C(C#N)=C1\CCC(C(=O)OC)N1C` (centres undefined), the TGI in [1], in [2], in [3], in experiment [4], in experiment [5] and in experiment [6] was more than 100 µM throughout. In addition, the TGI in experiment [7] and in experiment [9] was more than 100 µM in each case.

For the origin of these results see PubChem BioAssay (NCI).
